Measured values: patent US20240208901A1, “Deuterated 3,3'-Diselenodipropionic Acid (DSePA) and Its Use as an Anticancer or Radioprotective Agent” (Secretary, Department of Atomic Energy, priority 2022, published 2024)

Assays:
[1] = test system: H1975 cells; assay: MTT assay, anti-proliferative effect in H1975 cells; format: cell-based, human; details: Homo sapiens, NCI-H1975, 48 h treatment, read-out: IC50 to inhibit cell proliferation
Procedure: Therefore, D-DSePA was compared with un-deuterated DSePA for its anticancer activity in A549, H1975 and H3122 cell lines which are representative of NSCLC. For this, above cells were treated with the varying concentrations (0.1-100 μM) of DSePA/D-DSePA for 48 h and the cell viability was determined by MTT assay (FIG. 9A-C). The plot of percent (%) cytotoxicity (100-% viability) versus the concentration of DSePA/D-DSePA was used to estimate the half maximum concentration (IC50) of above compounds to inhibit the proliferation of cells. […] Employing these values, the therapeutic index (IC50 in normal lung cell/IC50 in lung cancer cell) of DSePA and D-DSePA in different pairs of normal versus cancerous cells (viz., A549/WI-38, A549/WI-26 VA4, H1975/WI-38, H1975/WI-26 VA4, H3122/WI-38 and H3122/WI-26 VA4) was calculated (Table-3). […]
MTT Assay—To evaluate the anti-proliferative effect of D-DScPA and DScPA, Cells (˜5×10^3) suspended in 100 μl of complete culture medium were seeded in each well of 96 well plates. […] The percentage (%) cytotoxicity was calculated from the decrease in absorbance at 570 nm of treated groups as compared to that of control group. […] The therapeutic index was calculated by normalizing the IC50 concentration of D-DSePA/DSePA in non-cancerous cells to that in cancerous cells.

[2] = test system: WI-38 cells; assay: Clonogenic assay in WI-38 cells; format: cell-based, human; details: Homo sapiens, 168 h, seven days treatment, read-out: IC50 to inhibit growth (survival fraction)
Procedure: Further, clonogenic assay is considered as the gold standard method for evaluating the anticancer activity of any compound and is also a good indicator of the in vivo efficacy of any anticancer compound. Therefore, the therapeutic index of DSePA and D-DSePA in A549/WI-38 cells was also validated by employing the clonogenic assay. For this, A549/WI-38 cells were treated with the varying concentrations (0.1-2 μM)/(1-500 μM) of DSePA/D-DSePA for seven days and the survival fraction was calculated by counting the number of surviving clones (FIG. 11A). The plot of survival fraction verses the concentration of DScPA/D-DSCPA was used to estimate the IC50 of above compounds to inhibit the growth of A549/WI-38 cells. […] This clearly confirmed that deuteration of DScPA reduced its toxicity in normal cells without compromising its efficacy in cancer cells. […]
Clonogenic assay—Clonogenic assay was performed according to the method reported previously. […] After 7 days, colonies were fixed with absolute methanol for 5 min, stained with 0.5% crystal violet for 5 min, washed with distilled water to remove excess stain and counted manually under a stereo microscope. […] The plating efficiency and the survival fraction under irradiated and drug treated conditions were calculated using following formulae: […]
The plating efficiency of A549 and WI38 cells was calculated by seeding ˜300 and ˜500 cells respectively. […]

In the case of `O=C(O)CC[Se][Se]CCC(=O)O` [DSePA, 3,3′-diselenodipropionic acid], the IC50 [1] is reported as 10.6 ± 1.1 µM and the IC50 [2] is reported as 17.9 ± 0.01 µM.
